Experimental data from EPA's ToxRefDB 2.

Assays:
[1] = system: rat; conditions: Prenatal developmental toxicity study, wistar, Oral, Gavage/Intubation, dose end: 15 GD
[2] = system: rat; conditions: Multigenerational reproductive toxicity study, wistar, Oral, Water, dose end: 2 generation
[3] = system: rabbit; conditions: Prenatal developmental toxicity study, himalayan, Oral, Gavage/Intubation, dose end: 19 GD
[4] = system: rat; conditions: Carcinogenicity, wistar, Oral, Water, dose end: 24 month, group: systemic
[5] = system: rat; conditions: Chronic toxicity, wistar, Oral, Water, dose end: 12 month, group: systemic
[6] = system: mouse; conditions: Subchronic inhalation toxicity, b6c3f1, Whole-Body, dose end: 13 week
[7] = system: rat; conditions: Subchronic inhalation toxicity, fischer, Whole-Body, dose end: 13 week, group: systemic
[8] = system: dog; conditions: Subchronic oral toxicity in nonrodent, beagle, Water, dose end: 90 day, group: systemic, systemic / in life observation / clinical signs / vomitting
[9] = system: rat; conditions: Multigenerational reproductive toxicity study, sprague dawley, Oral, Water, dose end: 2 generation
[10] = system: mouse; conditions: Subchronic oral toxicity in rodents, cd1, Water, dose end: 90 day, group: systemic, systemic / pathology microscopic / stomach / inflammation + systemic / urinalysis / specific gravity/osmolality / specific gravity/…
[11] = system: rat; conditions: Combined chronic toxicity/carcinogenicity, fischer, Oral, Water, dose end: 104 week, group: systemic
[12] = system: rat; conditions: Multigenerational reproductive toxicity study, sprague dawley, Oral, Water, dose end: 2 generation; remark: listed apart in the source
[13] = system: mouse; conditions: Chronic toxicity; b6c3f1; Inhalation; Whole-Body; dose end: 78 week; group: systemic; systemic / in life observation / body weight / body weight gain + systemic / pathology microscopic / nose / hyperplasia
[14] = system: rat; conditions: Subchronic dermal toxicity, sprague dawley, Topical, dose end: 90 day, group: systemic, systemic / pathology gross / skin / scabbing + systemic / pathology microscopic / skin / acanthosis + systemic / pathology microscopic / …
[15] = group: developmental, systemic / in life observation / body weight / fetal weight
[16] = group: maternal, systemic / in life observation / body weight / body weight gain + systemic / in life observation / clinical signs / piloerection + systemic…
[17] = group: maternal, systemic / in life observation / clinical signs / piloerection
[18] = group: offspring, systemic / in life observation / body weight / litter weight + systemic / in life observation / body weight / offspring (pup) weight
[19] = group: parental, systemic / in life observation / body weight / body weight + systemic / in life observation / body weight / body weight gain + systemic / in…
[20] = group: parental, systemic / in life observation / water consumption / water consumption
[21] = group: maternal, systemic / in life observation / body weight / body weight + systemic / in life observation / body weight / body weight gain + systemic / in…
[22] = systemic / in life observation / water consumption / water consumption
[23] = systemic / in life observation / body weight / body weight gain + systemic / pathology gross / stomach / erosion + systemic / pathology …
[24] = group: developmental, developmental / developmental malformation / penis / paraphimosis
[25] = group: maternal, reproductive / reproductive performance / estrous cycle / abnormal
[26] = group: systemic, systemic / pathology microscopic / nose / inflammation
[27] = group: systemic, systemic / pathology microscopic / nose / inflammation + systemic / in life observation / body weight / body weight gain
[28] = systemic / pathology microscopic / nose / [other] + systemic / pathology microscopic / nose / hyperplasia + systemic / pathology microscopic…
[29] = group: offspring, systemic / in life observation / body weight / offspring (pup) weight
[30] = group: parental, systemic / in life observation / food consumption / food consumption
[31] = group: parental, systemic / in life observation / food consumption / food consumption + systemic / pathology gross / lymph node / enlarged + systemic / …
[32] = systemic / organ weight / kidney / relative to body weight + systemic / in life observation / clinical signs / urine staining - perineum + …
[33] = systemic / organ weight / kidney / relative to body weight + systemic / pathology gross / stomach / [other] + systemic / clinical chemistry…
[34] = group: offspring, systemic / in life observation / body weight / offspring (pup) weight gain

SMILES: O=CCCCC=O [Glutaraldehyde]
- LEL [1, 15]: 100 mg/kg/day
- LOAEL [1, 15]: > 100 mg/kg/day
- NEL [1, 15]: 50 mg/kg/day
- NOAEL [1, 15]: ≥ 100 mg/kg/day
- LOAEL [1, 16]: > 100 mg/kg/day
- NOAEL [1, 16]: ≥ 100 mg/kg/day
- LEL [1, 17]: 25 mg/kg/day
- NEL [1, 17]: < 25 mg/kg/day
- LEL [2, 18]: 76 mg/kg/day
- LOAEL [2, 18]: 76 mg/kg/day
- NEL [2, 18]: 22.4 mg/kg/day
- NOAEL [2, 18]: 22.4 mg/kg/day
- LOAEL [2, 19]: 76 mg/kg/day
- NOAEL [2, 19]: 22.4 mg/kg/day
- LEL [2, 20]: 22.4 mg/kg/day
- NEL [2, 20]: 4.7 mg/kg/day
- LEL [3, 15]: 45 mg/kg/day
- LOAEL [3, 15]: 45 mg/kg/day
- NEL [3, 15]: 15 mg/kg/day
- NOAEL [3, 15]: 15 mg/kg/day
- LEL [3, 21]: 45 mg/kg/day
- LOAEL [3, 21]: 45 mg/kg/day
- NEL [3, 21]: 15 mg/kg/day
- NOAEL [3, 21]: 15 mg/kg/day
- LEL [4, 22]: 5.3 mg/kg/day
- NEL [4, 22]: < 5.3 mg/kg/day
- LOAEL ([4]; systemic / pathology microscopic / larynx / metaplasia): 61 mg/kg/day
- NOAEL ([4]; systemic / pathology microscopic / larynx / metaplasia + systemic / in life observation / body weight / body weight + systemic / in life …): 16.1 mg/kg/day
- LOAEL [5, 23]: 58.9 mg/kg/day
- NOAEL [5, 23]: 15.4 mg/kg/day
- LEL ([5]; systemic / pathology gross / pituitary gland / enlarged): 23.2 mg/kg/day
- NEL ([5]; systemic / pathology gross / pituitary gland / enlarged + systemic / in life observation / clinical signs / abnormal respiratory sounds + …): 4.8 mg/kg/day
- LEL [6, 24]: 1 ppm
- LOAEL [6, 24]: > 1 ppm
- NEL [6, 24]: 0.5 ppm
- NOAEL [6, 24]: ≥ 1 ppm
- LEL [6, 25]: 0.5 ppm
- LOAEL [6, 25]: > 1 ppm
- NEL [6, 25]: 0.25 ppm
- NOAEL [6, 25]: ≥ 1 ppm
- LOAEL [6, 26]: 0.0625 ppm
- NOAEL [6, 26]: < 0.0625 ppm
- LEL [6, 27]: 0.0625 ppm
- NEL [6, 27]: < 0.0625 ppm
- LEL ([7]; systemic / hematology / neutrophils / neutrophils): 0.125 ppm
- NEL ([7]; systemic / hematology / neutrophils / neutrophils + systemic / clinical chemistry / alanine aminotransferase (alt/sgpt) / alanine …): 0.0625 ppm
- LOAEL [7, 28]: 0.25 ppm
- NOAEL [7, 28]: 0.125 ppm
- LEL [8]: 14.6 mg/kg/day
- LOAEL [8]: 14.6 mg/kg/day
- NEL [8]: 9.8 mg/kg/day
- NOAEL [8]: 9.8 mg/kg/day
- LEL [9, 29]: 71.1 mg/kg/day
- LOAEL [9, 29]: 71.1 mg/kg/day
- NEL [9, 29]: 20.9 mg/kg/day
- NOAEL [9, 29]: 20.9 mg/kg/day
- LEL [9, 30]: 19.5 mg/kg/day
- LOAEL [9, 30]: 19.5 mg/kg/day
- NEL [9, 31]: 4.25 mg/kg/day
- NOAEL [9, 31]: 4.25 mg/kg/day
- LEL [10]: 200 mg/kg/day
- LOAEL [10]: 200 mg/kg/day
- NEL [10]: 60.8 mg/kg/day
- NOAEL [10]: 60.8 mg/kg/day
- LEL [11, 32]: 4 mg/kg/day
- NEL [11, 32]: < 4 mg/kg/day
- LOAEL [11, 33]: > 64 mg/kg/day
- NOAEL [11, 33]: ≥ 64 mg/kg/day
- LEL [12, 34]: 98.4 mg/kg/day
- LOAEL [12, 34]: 98.4 mg/kg/day
- NEL [12, 34]: 28.3 mg/kg/day
- NOAEL [12, 34]: 28.3 mg/kg/day
- LEL [12, 20]: 19.5 mg/kg/day
- LOAEL [12, 20]: > 69.1 mg/kg/day
- NEL [12, 20]: 4.25 mg/kg/day
- NOAEL [12, 20]: ≥ 69.1 mg/kg/day
- LEL [13]: 0.1 ppm
- LOAEL [13]: > 0.1 ppm
- NEL [13]: < 0.1 ppm
- NOAEL [13]: ≥ 0.1 ppm
- LEL [14]: 50 mg/kg/day
- LOAEL [14]: 50 mg/kg/day
- NEL [14]: < 50 mg/kg/day
- NOAEL [14]: < 50 mg/kg/day
